Test results as given in patent publication US6730495B2, “Methods for the identification of antimicrobial compounds” (Mycologics, Inc., priority 2001, dated 2004).

Key:
ketol-isomerase [1] = target: T1, ketol-isomerase (Candida albicans, UniProt P53704); details: C. albicans strain ATCC No. 10261 crude cell extracts; Milewski et al., J. Biol. Chem., 274:4000-4008 [1999]; read-out: IC50, inhibition of ketol-isomerase activity; cited from earlier work
T1 construct: ketol-isomerase activity in crude cell extract of Candida albicans ATCC10261 yeast-like cells; host or cells: Candida albicans ATCC 10261 crude cell extract
T1 sequence (P53704 2-713): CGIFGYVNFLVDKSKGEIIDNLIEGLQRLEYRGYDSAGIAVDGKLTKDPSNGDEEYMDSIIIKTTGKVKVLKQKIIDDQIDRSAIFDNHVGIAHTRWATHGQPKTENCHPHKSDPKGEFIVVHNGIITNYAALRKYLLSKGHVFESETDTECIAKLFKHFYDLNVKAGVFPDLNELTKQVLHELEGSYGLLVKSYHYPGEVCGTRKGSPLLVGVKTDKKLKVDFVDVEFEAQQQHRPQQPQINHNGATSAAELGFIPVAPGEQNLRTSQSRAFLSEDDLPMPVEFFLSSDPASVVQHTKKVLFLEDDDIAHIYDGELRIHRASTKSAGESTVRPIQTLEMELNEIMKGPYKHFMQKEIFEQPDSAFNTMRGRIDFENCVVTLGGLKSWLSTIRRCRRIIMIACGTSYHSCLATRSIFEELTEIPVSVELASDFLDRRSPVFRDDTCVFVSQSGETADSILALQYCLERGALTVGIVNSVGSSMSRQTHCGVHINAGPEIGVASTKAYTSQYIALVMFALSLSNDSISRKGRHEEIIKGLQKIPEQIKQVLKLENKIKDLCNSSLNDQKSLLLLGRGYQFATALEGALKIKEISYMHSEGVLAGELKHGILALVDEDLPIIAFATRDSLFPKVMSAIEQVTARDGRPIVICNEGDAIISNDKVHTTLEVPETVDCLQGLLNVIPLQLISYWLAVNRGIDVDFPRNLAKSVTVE

ketol-isomerase [2] = target: ketol-isomerase (Aspergillus fumigatus, UniProt E9R5E2); assay: nitro BT ketol-isomerase inhibition assay with crude A. fumigatus cell extract; type: biochemical; details: UDP-GlcNAc 0 to 10 mM
Sequence of ketol-isomerase (Aspergillus fumigatus, UniProt E9R5E2) (E9R5E2 entry or part of it): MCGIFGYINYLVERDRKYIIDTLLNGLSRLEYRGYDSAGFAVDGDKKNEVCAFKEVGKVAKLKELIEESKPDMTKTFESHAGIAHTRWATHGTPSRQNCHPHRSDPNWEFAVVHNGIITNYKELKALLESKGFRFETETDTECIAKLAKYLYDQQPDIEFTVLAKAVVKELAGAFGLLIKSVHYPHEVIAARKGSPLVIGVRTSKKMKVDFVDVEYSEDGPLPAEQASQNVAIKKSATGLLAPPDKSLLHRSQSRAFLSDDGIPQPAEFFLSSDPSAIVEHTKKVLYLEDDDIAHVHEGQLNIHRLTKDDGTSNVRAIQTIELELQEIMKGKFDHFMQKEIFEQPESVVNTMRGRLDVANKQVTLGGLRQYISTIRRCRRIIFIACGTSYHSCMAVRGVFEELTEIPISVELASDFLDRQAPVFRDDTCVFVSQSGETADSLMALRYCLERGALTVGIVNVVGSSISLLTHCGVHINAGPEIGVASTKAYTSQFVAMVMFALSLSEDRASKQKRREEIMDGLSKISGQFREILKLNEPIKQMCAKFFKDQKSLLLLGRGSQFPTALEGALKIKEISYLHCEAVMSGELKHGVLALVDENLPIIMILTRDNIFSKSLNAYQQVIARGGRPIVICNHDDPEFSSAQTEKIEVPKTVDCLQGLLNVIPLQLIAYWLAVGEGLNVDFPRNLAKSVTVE
Protocol: Briefly, in this experiment, a series of ketol-isomerase reactions were analyzed in parallel, wherein each reaction mixture contained Fru-6-P, glutamine, and crude A. fumigatus cell extract (as described in Example 3). In addition, reactions also contained various concentrations of UDP-GlcNAc, ranging from 0 to 10 mM. Reactions were incubated at 37° C. for 60 minutes, after which time the ketol-isomerase reactions were terminated by heating at 70° C. for 15 min. However, the ketol-isomerase reaction can also be terminated by boiling for 5 minutes. In addition, the ketol-isomerase reaction can be clarified following the inactivation step by centrifugation or filtration.
Following arrest of the ketol-isomerase reaction, the necessary reagents for the nitro BT reaction were added to each reaction mixture, including glutamate dehydrogenase enzyme and molar excesses of β-NAD, PMS, and nitro BT. After incubation at 37° C. for 90 minutes, the color development was quantitated by measurement of OD585 nm. […]
In this experiment, 50 μL aliquots of a ketol-isomerase reaction mixture containing 10 mM Fru-6-P, 10 mM Gln, 0.3 mg/mL crude A. fumigatus extract, and various concentrations of UDP-GlcNAc were incubated at 37° C. for 60 minutes. […] After incubation at 37° C. for 90 minutes, the color development was quantitated by OD585 nm.

CC(=O)N[C@H]1[C@@H](OP(=O)(O)OP(=O)(O)OC[C@H]2O[C@@H](n3ccc(=O)[nH]c3=O)[C@H](O)[C@@H]2O)O[C@H](CO)[C@@H](O)[C@@H]1O [UDP-GlcNAc, UDP-N-acetylglucosamine]
IC50 (ketol-isomerase [1]): 690 µM
inhibition of ketol-isomerase activity in A. fumigatus crude extract (FIG. 5) (ketol-isomerase [2]): inhibited by UDP-GlcNAc in a dose-dependent manner
